Source: patent US6355799B1, “Substituted benzene compounds, process for their preparation, and herbicidal and defoliant compositions containing them” (ISK Americas Incorporated, priority 1997, dated 2002)

Key:
Format in all cases: in vivo
[1] = tested on: redroot pigweed (Amaranthus retroflexus, AMARE); experiment: Pre-emerge test, greenhouse herbicide activity screening; conditions: pre-emerge, rated 14 days after application, 0 = no damage, 100 = complete death
In short: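 Herbicidal damage is scored 0 (none) to 100 (complete plant death) two weeks after a simulated field spray. Rates span 15–1000 g ai/ha, delivered in acetone at 187 l/ha. For post-emergence treatments, plants have 2–3 leaves and the spray carries 0.25% v/v non-ionic surfactant.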

[2] = tested on: barnyardgrass (Echinochloa crus-galli, ECHCG); experiment: as above; conditions: pre-emerge, rated 14 days after application, 0 = no damage, 100 = complete death
In short: (§1)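 Sandy loam pots; pre-emerge: sown 1 d pre-spray, surface-watered after, then bottom-watered. Post-emerge: sown 8–21 d before, 2–3 leaf stage, + 0.25% v/v NIS, bottom-watered. Acetone, 187 l/ha track spray, 15–1000 g ai/ha. 0–100 injury score, day 14.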

[3] = tested on: common ragweed (Ambrosia artemisizfolia L., AMBEL); experiment: as above; conditions: pre-emerge, rated 14 days after application, 0 = no damage, 100 = complete death
In short: as §1

[4] = tested on: green foxtail (Setaria viridis, SETVI); experiment: as above; conditions: pre-emerge, rated 14 days after application, 0 = no damage, 100 = complete death
In short: as §1

[5] = tested on: ivyleaf morningglory (Ipomoea hederacea, IPOHE); experiment: as above; conditions: pre-emerge, rated 14 days after application, 0 = no damage, 100 = complete death
In short: as §1

[6] = tested on: johnsongrass (Sorghum halepense, SORHA); experiment: as above; conditions: pre-emerge, rated 14 days after application, 0 = no damage, 100 = complete death
In short: as §1

[7] = tested on: lambsquarters (Chenopodium album, CHEAL); experiment: as above; conditions: pre-emerge, rated 14 days after application, 0 = no damage, 100 = complete death
In short: as §1

[8] = tested on: large crabgrass (Digitaria sanguinalis, DIGSA); experiment: as above; conditions: pre-emerge, rated 14 days after application, 0 = no damage, 100 = complete death
In short: as §1

[9] = tested on: sicklepod (Cassia obtusifolia, CASOB); experiment: as above; conditions: pre-emerge, rated 14 days after application, 0 = no damage, 100 = complete death
In short: as §1

[10] = tested on: velvetleaf (Abutilon theophrasti, ABUTH); experiment: as above; conditions: pre-emerge, rated 14 days after application, 0 = no damage, 100 = complete death
In short: as §1

[11] = tested on: field corn (Zea mays L., var. Dekalb 535, CORN); experiment: Pre-emerge test, crop safety; conditions: pre-emerge, rated 14 days after application, 0 = no damage, 100 = complete death
In short: (§2)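 Rating: 0–100 visual injury, 14 DAA. Application: acetone, 187 l/ha, 15–1000 g ai/ha, flat-fan track sprayer with nozzle 40–45 cm above soil or canopy. Post-emerge runs used 0.25% v/v surfactant on 2–3 leaf plants.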

[12] = tested on: upland rice (Oryza sp., var. Tebonnet, RICE); experiment: Pre-emerge test, crop safety; conditions: pre-emerge, rated 14 days after application, 0 = no damage, 100 = complete death
In short: as §2

[13] = tested on: barnyardgrass (Echinochloa crus-galli, ECHCG); experiment: Post-emerge test, greenhouse herbicide activity screening; conditions: phytotoxicity rating 0-100 (0 no damage, 100 complete death), 14 days after application
In short: (§3)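 Each test used a mechanized track sprayer delivering 187 l/ha of acetone solution at 15–1000 g ai/ha. Post-emerge foliage at 2–3 leaves was treated with added 0.25% v/v non-ionic surfactant and bottom-watered only. Injury was assessed on day 14, where 100 means total kill.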

[14] = tested on: common ragweed (Ambrosia artemisizfolia L., AMBEL); experiment: as above; conditions: phytotoxicity rating 0-100 (0 no damage, 100 complete death), 14 days after application
In short: as §3

[15] = tested on: green foxtail (Setaria viridis, SETVI); experiment: as above; conditions: phytotoxicity rating 0-100 (0 no damage, 100 complete death), 14 days after application
In short: as §3

[16] = tested on: ivyleaf morningglory (Ipomoea hederacea, IPOHE); experiment: as above; conditions: phytotoxicity rating 0-100 (0 no damage, 100 complete death), 14 days after application
In short: as §3

[17] = tested on: johnsongrass (Sorghum halepense, SORHA); experiment: as above; conditions: phytotoxicity rating 0-100 (0 no damage, 100 complete death), 14 days after application
In short: as §3

[18] = tested on: lambsquarters (Chenopodium album, CHEAL); experiment: as above; conditions: phytotoxicity rating 0-100 (0 no damage, 100 complete death), 14 days after application
In short: as §3

[19] = tested on: large crabgrass (Digitaria sanguinalis, DIGSA); experiment: as above; conditions: phytotoxicity rating 0-100 (0 no damage, 100 complete death), 14 days after application
In short: as §3

[20] = tested on: redroot pigweed (Amaranthus retroflexus, AMARE); experiment: as above; conditions: phytotoxicity rating 0-100 (0 no damage, 100 complete death), 14 days after application
In short: as §3

[21] = tested on: sicklepod (Cassia obtusifolia, CASOB); experiment: as above; conditions: phytotoxicity rating 0-100 (0 no damage, 100 complete death), 14 days after application
In short: as §3

[22] = tested on: velvetleaf (Abutilon theophrasti, ABUTH); experiment: as above; conditions: phytotoxicity rating 0-100 (0 no damage, 100 complete death), 14 days after application
In short: as §3

[23] = tested on: field corn (Zea mays L., var. Dekalb 535, CORN); experiment: Post-emerge test, crop safety; conditions: phytotoxicity rating 0-100 (0 no damage, 100 complete death), 14 days after application
In short: as §1

[24] = tested on: upland rice (Oryza sp., var. Tebonnet, RICE); experiment: Post-emerge test, crop safety; conditions: phytotoxicity rating 0-100 (0 no damage, 100 complete death), 14 days after application
In short: as §1

Which results are given for `CCCc1ccc(C(=O)N(C(=O)c2ccc(CCC)cc2)c2c(OC)c(Cl)cc(F)c2-n2c(=O)cc(C(F)(F)F)n(C)c2=O)cc1` [2-29]?
Pre-emerge Herbicidal Activity AMARE (phytotoxicity rating, scale 0-100) ([1]; 63 g ai/ha): 100; Pre-emerge Herbicidal Activity AMARE (phytotoxicity rating, scale 0-100) ([1]; 250 g ai/ha): 100; Pre-emerge Herbicidal Activity ECHCG (phytotoxicity rating, scale 0-100) ([2]; 63 g ai/ha): 0; Pre-emerge Herbicidal Activity ECHCG (phytotoxicity rating, scale 0-100) ([2]; 250 g ai/ha): 50; Pre-emerge Herbicidal Activity AMBEL (phytotoxicity rating, scale 0-100) ([3]; 63 g ai/ha): 0; Pre-emerge Herbicidal Activity AMBEL (phytotoxicity rating, scale 0-100) ([3]; 250 g ai/ha): 60; Pre-emerge Herbicidal Activity SETVI (phytotoxicity rating, scale 0-100) ([4]; 63 g ai/ha): 100; Pre-emerge Herbicidal Activity SETVI (phytotoxicity rating, scale 0-100) ([4]; 250 g ai/ha): 100; Pre-emerge Herbicidal Activity IPOHE (phytotoxicity rating, scale 0-100) ([5]; 63 g ai/ha): 30; Pre-emerge Herbicidal Activity IPOHE (phytotoxicity rating, scale 0-100) ([5]; 250 g ai/ha): 100; Pre-emerge Herbicidal Activity SORHA (phytotoxicity rating, scale 0-100) ([6]; 63 g ai/ha): 0; Pre-emerge Herbicidal Activity SORHA (phytotoxicity rating, scale 0-100) ([6]; 250 g ai/ha): 80; Pre-emerge Herbicidal Activity CHEAL (phytotoxicity rating, scale 0-100) ([7]; 63 g ai/ha): 100; Pre-emerge Herbicidal Activity CHEAL (phytotoxicity rating, scale 0-100) ([7]; 250 g ai/ha): 100; Pre-emerge Herbicidal Activity DIGSA (phytotoxicity rating, scale 0-100) ([8]; 63 g ai/ha): 60; Pre-emerge Herbicidal Activity DIGSA (phytotoxicity rating, scale 0-100) ([8]; 250 g ai/ha): 90; Pre-emerge Herbicidal Activity CASOB (phytotoxicity rating, scale 0-100) ([9]; 63 g ai/ha): 60; Pre-emerge Herbicidal Activity CASOB (phytotoxicity rating, scale 0-100) ([9]; 250 g ai/ha): 100; Pre-emerge Herbicidal Activity ABUTH (phytotoxicity rating, scale 0-100) ([10]; 63 g ai/ha): 100; Pre-emerge Herbicidal Activity ABUTH (phytotoxicity rating, scale 0-100) ([10]; 250 g ai/ha): 100; Pre-emerge crop damage CORN (phytotoxicity rating, scale 0-100) ([11]; 63 g ai/ha): 0; Pre-emerge crop damage CORN (phytotoxicity rating, scale 0-100) ([11]; 250 g ai/ha): 15; Pre-emerge crop damage RICE (phytotoxicity rating, scale 0-100) ([12]; 63 g ai/ha): 40; Pre-emerge crop damage RICE (phytotoxicity rating, scale 0-100) ([12]; 250 g ai/ha): 65; Post-emerge Herbicidal Activity ECHCG ([13]; 63 g ai/ha): 0; Post-emerge Herbicidal Activity ECHCG ([13]; 250 g ai/ha): 20; Post-emerge Herbicidal Activity AMBEL ([14]; 63 g ai/ha): 50; Post-emerge Herbicidal Activity AMBEL ([14]; 250 g ai/ha): 60; Post-emerge Herbicidal Activity SETVI ([15]; 63 g ai/ha): 20; Post-emerge Herbicidal Activity SETVI ([15]; 250 g ai/ha): 50; Post-emerge Herbicidal Activity IPOHE ([16]; 63 g ai/ha): 75; Post-emerge Herbicidal Activity IPOHE ([16]; 250 g ai/ha): 100; Post-emerge Herbicidal Activity SORHA ([17]; 63 g ai/ha): 0; Post-emerge Herbicidal Activity SORHA ([17]; 250 g ai/ha): 10; Post-emerge Herbicidal Activity CHEAL ([18]; 63 g ai/ha): 80; Post-emerge Herbicidal Activity CHEAL ([18]; 250 g ai/ha): 90; Post-emerge Herbicidal Activity DIGSA ([19]; 63 g ai/ha): 0; Post-emerge Herbicidal Activity DIGSA ([19]; 250 g ai/ha): 20; Post-emerge Herbicidal Activity AMARE ([20]; 63 g ai/ha): 90; Post-emerge Herbicidal Activity AMARE ([20]; 250 g ai/ha): 100; Post-emerge Herbicidal Activity CASOB ([21]; 63 g ai/ha): 20; Post-emerge Herbicidal Activity CASOB ([21]; 250 g ai/ha): 40; Post-emerge Herbicidal Activity ABUTH ([22]; 63 g ai/ha): 100; Post-emerge Herbicidal Activity ABUTH ([22]; 250 g ai/ha): 100; Post-emerge Herbicidal Activity CORN (crop damage) ([23]; 63 g ai/ha): 10; Post-emerge Herbicidal Activity CORN (crop damage) ([23]; 250 g ai/ha): 25; Post-emerge Herbicidal Activity RICE (crop damage) ([24]; 63 g ai/ha): 40; Post-emerge Herbicidal Activity RICE (crop damage) ([24]; 250 g ai/ha): 60
